Data set [1] has as its target T1, Growth hormone secretagogue receptor type 1 (Homo sapiens, UniProt Q92847). Nature of the data set: Antagonist activity at human GHSR1a receptor assessed as intracellular Ca2+ concentration by aequorin luminescent assay. Type of data set: functional, cell-based.
Data set [2] addresses T1, Growth hormone secretagogue receptor type 1. The data set can be described thus: Displacement of [125I]Ghrelin from human GHSR1a receptor. For orientation: Displacement assays read how much labelled ligand stays bound in the presence of the test substance.
The target of data set [3] is Growth hormone secretagogue receptor type 1 (Mus musculus, UniProt Q99P50). The data set can be described thus: Antagonist activity at mouse GHSR1 receptor assessed as intracellular Ca2+ concentration by aequorin luminescent assay. Type of data set: functional, cell-based.
Chain of Growth hormone secretagogue receptor type 1 (Mus musculus, UniProt Q99P50) (Q99P50 whole entry): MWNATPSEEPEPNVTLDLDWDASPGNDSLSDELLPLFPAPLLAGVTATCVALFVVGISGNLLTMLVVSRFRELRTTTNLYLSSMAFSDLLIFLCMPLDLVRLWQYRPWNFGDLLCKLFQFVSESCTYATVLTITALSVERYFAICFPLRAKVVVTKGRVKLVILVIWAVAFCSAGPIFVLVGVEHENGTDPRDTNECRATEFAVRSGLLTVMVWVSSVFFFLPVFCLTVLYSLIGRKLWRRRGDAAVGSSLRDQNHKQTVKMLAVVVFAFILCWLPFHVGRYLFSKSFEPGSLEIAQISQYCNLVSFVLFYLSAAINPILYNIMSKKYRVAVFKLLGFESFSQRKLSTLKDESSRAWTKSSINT
The nature of data set [4]: Metabolic stability in human liver S9 fraction assessed as compound remaining after 1 hr. In kind it is ADME, subcellular. Particulars: read-out: Stability.
A short description of data set [5]: Clearance in Sprague-Dawley rat at 2 mg/kg, po. The settings on record: in vivo. Also on record: dose 2 mg/kg, route oral. In kind it is ADME, organism-based.
A short description of data set [6]: Oral bioavailability in Sprague-Dawley rat at 2 mg/kg. The settings on record: in vivo. Type of data set: ADME, organism-based.
A short description of data set [7]: AUC in Sprague-Dawley rat at 2 mg/kg, po. In kind it is ADME, organism-based. Further details: dose 2 mg/kg, route oral. Particulars: plasma.
Data set [8] can be described thus: Metabolic stability in rat liver S9 fraction assessed as compound remaining after 1 hr. Type of data set: ADME, subcellular. Particulars: read-out: Stability.

pIC50, pKi: −log10 of the molar value. Where only a bound is given, the exact number is not on record here.

T1 sequence (Q92847 whole entry): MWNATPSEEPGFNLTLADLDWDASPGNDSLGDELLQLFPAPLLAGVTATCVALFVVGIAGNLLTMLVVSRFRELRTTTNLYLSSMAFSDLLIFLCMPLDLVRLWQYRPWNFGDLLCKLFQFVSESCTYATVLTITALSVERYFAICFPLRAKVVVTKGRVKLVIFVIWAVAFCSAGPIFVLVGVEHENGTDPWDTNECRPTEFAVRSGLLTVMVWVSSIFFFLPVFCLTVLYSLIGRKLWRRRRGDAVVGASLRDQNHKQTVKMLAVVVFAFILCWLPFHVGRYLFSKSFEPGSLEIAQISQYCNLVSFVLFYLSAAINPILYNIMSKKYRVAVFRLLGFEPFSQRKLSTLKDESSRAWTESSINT

Broadly, the pIC50 is the negative decadic logarithm of the IC50, by convention in mol/L. For orientation: pKi means the Ki on a negative log10 scale, so that one unit is a factor of ten. Low values mean a high Ki, high ones a low Ki. What is called CL/F is clearance divided by bioavailability, as obtained after extravascular dosing. A word on the bioavailability: it is dose-corrected exposure relative to a reference, in per cent. Higher therefore signals good availability. One may read the AUC as the area under the concentration-time curve, a measure of exposure. Read a low AUC as less exposure. Consider `CC(C)[C@H](C(=O)NC1CCN(Cc2ccccc2)CC1)N1CC(=O)Nc2ccc(Oc3ccccc3)cc2C1=O`, for which the figures for the pIC50 in data set [1] and in data set [3] were 8.10 and 8.15, respectively. Further, in data set [2], the pKi was 8.36. The results for the remaining at 1 h in data set [4] and in data set [8] were 30% and 19%, respectively. Further, the CL/F in data set [5] is 143 mL/min/kg. Moreover, the bioavailability in data set [6] was 6%. Also, in data set [7], the AUC is 132 ng·h/mL.

As to `CC(C)[C@H](C(=O)NC1CCN(Cc2ccccc2)CC1)N1CC(=O)Nc2ccc(Oc3ccc(F)cc3)cc2C1=O`, the pIC50 in data set [1] was 7.96.

`Cc1ccc(Oc2ccc3c(c2)C(=O)N([C@@H](C(=O)NC2CCN(Cc4ccccc4)CC2)C(C)C)CC(=O)N3)cc1`: the pIC50 in data set [1] is 8.15.

Take `Cc1ccccc1Oc1ccc2c(c1)C(=O)N([C@@H](C(=O)NC1CCN(Cc3ccccc3)CC1)C(C)C)CC(=O)N2`: the pIC50 in data set [1] is 8.52. In addition, the remaining at 1 h in data set [4] came out at 5%; in data set [8] it was 3%.

Turning to `CC(C)[C@H](C(=O)NC1CCN(Cc2ccccc2)CC1)N1CC(=O)Nc2ccc(Oc3cccc(Cl)c3)cc2C1=O`, the pIC50 in data set [1] was 6.77.

With `CC(C)[C@H](C(=O)NC1CCN(Cc2ccccc2)CC1)N1CC(=O)Nc2ccc(Oc3ccc(Cl)cc3)cc2C1=O`, the pIC50 in data set [1] was 7.55.

Regarding `COc1ccccc1Oc1ccc2c(c1)C(=O)N([C@@H](C(=O)NC1CCN(Cc3ccccc3)CC1)C(C)C)CC(=O)N2`, the pIC50 in data set [1] was 7.59. Further, the remaining at 1 h worked out at 26% in data set [4] and 19% in data set [8].

`COc1cccc(Oc2ccc3c(c2)C(=O)N([C@@H](C(=O)NC2CCN(Cc4ccccc4)CC2)C(C)C)CC(=O)N3)c1`: the pIC50 in data set [1] was 6.84. Moreover, the remaining at 1 h is 22% in data set [4] and 10% in data set [8].

Turning to `COc1ccc(Oc2ccc3c(c2)C(=O)N([C@@H](C(=O)NC2CCN(Cc4ccccc4)CC2)C(C)C)CC(=O)N3)cc1`, the pIC50 in data set [1] is 7.10.

Take `Cc1cc(F)ccc1Oc1ccc2c(c1)C(=O)N([C@@H](C(=O)NC1CCN(Cc3ccccc3)CC1)C(C)C)CC(=O)N2`: the pIC50 in data set [1] was 9.70. Also, the remaining at 1 h in data set [4] was determined as 5%; in data set [8], 3%.

On to `Cc1cccc(C)c1Oc1ccc2c(c1)C(=O)N([C@@H](C(=O)NC1CCN(Cc3ccccc3)CC1)C(C)C)CC(=O)N2`, for which the negative logarithm of the IC50 (pIC50) in data set [1] was 9.00.

Consider `O=C1CN(CC(=O)NC2CCN(Cc3ccccc3)CC2)C(=O)c2cc(Oc3ccccc3)ccc2N1`, for which the pIC50 in data set [1] was 6.50.

On to `O=C1CN([C@@H](C(=O)NC2CCN(Cc3ccccc3)CC2)C2CC2)C(=O)c2cc(Oc3ccccc3)ccc2N1`, for which, in data set [1], the pIC50 is 7.92.

As for `CC(C)[C@@H](C(=O)NC1CCN(Cc2ccccc2)CC1)N1CC(=O)Nc2ccc(Oc3ccccc3)cc2C1=O`, the pIC50 in data set [1] is 6.71.

Regarding `CC(C)[C@H](C(=O)NC1CCC(Cc2ccccc2)CC1)N1CC(=O)Nc2ccc(Oc3ccccc3)cc2C1=O` (stereo not given in full), the pIC50 in data set [1] is less than 5.00. For the same compound, the remaining at 1 h in data set [4] amounted to 23%; in data set [8] it was 95%.

In the case of `CC(C)[C@H](C(=O)N1CCC(NCc2ccccc2)CC1)N1CC(=O)Nc2ccc(Oc3ccccc3)cc2C1=O`, the pIC50 in data set [1] is 8.10. The results for the remaining at 1 h in data set [4] and in data set [8] were 62% and 72%, respectively.

In the case of `CC(C)[C@H](C(=O)N1CCC(N[C@H](C)c2ccccc2)CC1)N1CC(=O)Nc2ccc(Oc3ccccc3)cc2C1=O`, in data set [1], the negative logarithm of the IC50 (pIC50) was 8.60. Also, the remaining at 1 h turned out to be 27% in data set [4] and 46% in data set [8].

On to `CC(C)[C@H](C(=O)N1CCC(NC(C)(C)c2ccccc2)CC1)N1CC(=O)Nc2ccc(Oc3ccccc3)cc2C1=O`, for which the negative-log IC50 (pIC50) in data set [1] was 7.78. Further, the remaining at 1 h in data set [4] came out at 19%; in data set [8] it was 48%.

Regarding `CC(C)[C@H](C(=O)N1CCC(N[C@H](C)C2CCCCC2)CC1)N1CC(=O)Nc2ccc(Oc3ccccc3)cc2C1=O`, the pIC50 in data set [1] is 8.60. In addition, the remaining at 1 h in data set [4] came out at 30%; in data set [8] it was 28%.

Turning to `CC(C)[C@H](C(=O)N1CCC(NCCC2CCCCC2)CC1)N1CC(=O)Nc2ccc(Oc3ccccc3)cc2C1=O`, the pIC50 in data set [1] is 8.39. In data set [4], the remaining at 1 h was determined as 76%.

`CC(C)[C@H](C(=O)N1CCC(NCCC2CCOCC2)CC1)N1CC(=O)Nc2ccc(Oc3ccccc3)cc2C1=O`: the pIC50 in data set [1] is 6.50.

`CC(C)[C@H](C(=O)N1CCC(NCC2CC2)CC1)N1CC(=O)Nc2ccc(Oc3ccccc3)cc2C1=O`: the pIC50 in data set [1] is 7.30. In addition, the remaining at 1 h is 86% in data set [4] and 71% in data set [8].

For `CC(C)[C@H](C(=O)NC1CCNCC1)N1CC(=O)Nc2ccc(Oc3ccccc3)cc2C1=O`, the pIC50 in data set [1] was less than 5.00.

Consider `CC(C)[C@H](C(=O)NC1CCN(C(=O)c2ccccc2)CC1)N1CC(=O)Nc2ccc(Oc3ccccc3)cc2C1=O`, for which, in data set [1], the pIC50 is less than 5.00.

For the compound `CC(C)[C@H](C[C@H]1CC[C@@H](NCc2ccccc2)CC1)N1CC(=O)Nc2ccc(Oc3ccccc3)cc2C1=O`, in data set [1], the pIC50 is 8.22.

As for `CC(C)[C@H](C[C@H]1CC[C@@H](NCC2CC2)CC1)N1CC(=O)Nc2ccc(Oc3ccc(F)cc3F)cc2C1=O`, the pIC50 in data set [1] was 7.70. Besides, the figures for the remaining at 1 h in data set [4] and in data set [8] were 68% and 27%, respectively.

Turning to `CC(C)[C@H](C[C@H]1CC[C@@H](NCC2CC2)CC1)N1CCCc2ccc(Oc3ccc(F)cc3F)cc2C1=O`, in data set [1], the pIC50 is 8.70. Also, the remaining at 1 h turned out to be 92% in data set [4] and 97% in data set [8]. In data set [5], this compound had a CL/F of 10 mL/min/kg. Moreover, in data set [6], the bioavailability amounted to 39%. The compound also registered an AUC in data set [7] of 618 ng·h/mL.

Turning to `CC(C)[C@H](C(=O)N1CCC(NCc2ccccc2)CC1)N1CC(=O)Nc2ccc(Oc3ccc(F)cc3F)cc2C1=O`, the pIC50 in data set [1] is 9.52. The remaining at 1 h in data set [4] was 70%; in data set [8], 65%.

The record behind these values is ChEMBL document CHEMBL2010687 (Bioorg Med Chem Lett, 2012).
